# Experimental data taken from patent US11530458B2, “Methods of using multi-ligand metal complexes to perform oxidative catalytic pretreatment of lignocellulosic biomass” (Board of Trustees of Michigan State University, priority 2014, dated 2022).
# Columns and labels:
# [1] = Catalytic AOP pretreatment of alkali-extracted switchgrass, then enzymatic hydrolysis (glucose yield); design: species or system Panicum virgatum; details: for Glucose yield of enzymatic hydrolysis (% of theoretical maximum): 24 hr AOP pretreatment of AESG, catalyst concentration per table
# Experimental: Screening of various metal ligand complexes (hereinafter “catalysts”) was performed via catalytic alkaline oxidative pretreatment (AOP) pretreatment of alkali-extracted switchgrass (AESG). To prepare AESG, 80 grams of untreated switchgrass (Panicum virgatum, cv. Cave-In-Rock, hammer milled to pass a 5-mm screen, and stored at a moisture content of approximately 5%) was soaked in an aqueous solution of 5 g/L NaOH at 80° C. for 2 hrs. The weight-to-volume (w/v) solids loading of switchgrass during alkaline extraction was 10% (e.g., 10 g of biomass in 100 mL NaOH solution). […] The washed solids was recovered as AESG and air-dried for over 7 days.
# [Al(III)(3,5-^tBu2-salophen)Cl] [3,5-^tBu2-salophen=N,N′-bis(3,5-di-tert-butylsalicylidene)-1,2-phenylenediamine], [Zn(II)(BPPA)Cl]Cl [BPPA=N,N-bis(6-pivaloylamido-2-pyridylmethyl)-N-(2-pyridylmethyl)amine], and [NEt4][Fe(III)(bpb)Cl2]
# To study the effect of catalytic AOP pretreatment on AESG, pretreatment was performed in a 100 g/L aqueous suspension of AESG in the presence of each catalyst. […] After 24 hrs of incubation at 30° C. without mixing, the pretreated switchgrass slurry was washed using deionized water to remove the alkaline phosphate buffer.
# The enzymatic digestibility of AOP-pretreated switchgrass was estimated by the yield of glucose during the enzymatic hydrolysis of AOP pretreated AESG. The percentage yield was calculated on the basis of the glucan content in AESG prior to catalytic AOP pretreatment.
# For enzymatic hydrolysis, 500 μL of 1 M Na-citrate buffer (pH 5) and 40 μL of 10 mM tetracycline (Sigma-Aldrich) were added to AOP-AESG that was not dried after catalytic AOP pretreatment. Accellerase 1500 (42 FPU/mL; Danisco-Genencor, Palo Alto, Calif.) was added at 50 mg protein per gram of glucan in AESG. The total volume of the mixture (solid and liquid) was adjusted with deionized water to reach a 5% (w/v) solids concentration, and the samples were incubated at 50° C. during hydrolysis.
# [2] = Catalyst screening with multi-ligand metal complexes: enzymatic digestibility of hybrid poplar after AOP pretreatment; design: species or system Populus nigra var. charkoviensis×caudina cv. NE-19; details: FIG. 1
# Experimental: Metal complexes (hereinafter “metal catalysts”) containing multiple or single metal coordinating ligands were tested. The metal catalysts tested included copper catalysts having a second metal coordinating ligand substituted for at least a portion of the 2,2′-bipyridine. These catalysts were evaluated for their performance in further enhancing the efficacy of AOP pretreatment of hybrid poplar. Ligands involved in the screening included histidine, glycine, di(2-picolyl)amine (dipica, 97%), 1,4,7-triazacyclononane (TACN, 95%), 2,2′;6′,2″-terpyridine (Terpy, 98%), 1,10-phenanthroline (phen, ≥99%), and tris(2-pyridylmethyl)amine (TPA, 98%, obtained from Sigma-Aldrich and Acros Organics/0). An iron 2,2′-bipyridine complex was prepared by mixing ferrous sulfate heptahydrate with 2,2′-bipyridine in an aqueous solution, and this iron complex was also tested.
# The hybrid poplar (Populus nigra var. charkoviensis×caudina cv. NE-19) used in this testing was grown at the University of Wisconsin Arlington Agricultural Research Station. The hybrid poplar was harvested in 2011 and debarked using methods known in the art at the University of Wisconsin, Madison to produce heartwood and sap wood (different parts of the wood stem which can be differentiated via chemical testing). […]
# [3] = Metal-catalyzed AOP pretreatment of chelated woody biomass, then enzymatic hydrolysis; details: [metal]:[bpy]=2 mM:4 mM; versus Mn-AOP and Fe-AOP; FIG. 30
# Experimental: Three different pretreatment strategies were tested on each of the biomass samples: alkali only, alkaline hydrogen peroxide (AOP), and copper-catalyzed AOP (Cu-AOP). In all cases, 0.51 g of biomass (approximately 0.5 g dry basis; about 3 to about 5% moisture content) was pretreated in a total of 5.0 mL aqueous solution (10% solids loading). For alkali-only pretreatment, the solution contained 50 mg NaOH (100 mg NaOH/g biomass), while AOP pretreatment also contained 150 μL of 30% H2O2 (100 mg H2O2/g biomass). […]
# Following pretreatment, 0.5 mL of 1 M citric acid buffer (pH 4.8) was added to the pretreated slurry, and the slurry was slowly titrated with 72% (w/w) H2SO4 to adjust the pH to 5.0 prior to enzymatic hydrolysis. […] The protein concentrations of the stock enzyme cocktails were quantified as y described in X. Gao, R. Kumar, S. Singh, B. A. Simmons, V. Balan, B. E. Dale and C. […]
# Following enzymatic hydrolysis, the solid and liquid phases were separated by centrifugation, and the amount of glucose and xylose released into the aqueous phase was quantified by HPLC (Agilent 1260 Series equipped with an Aminex® HPX-87H column operating at 65° C., a mobile phase of 0.05 M H2SO4, a flow rate of 0.6 mL/min, and detection using an Agilent 1260 infinity refractive index detector). […]
substance,measurement,setting,value
"copper(II) 2,2′-bipyridine complex [Cu(bpy), L/M = 3:1]",Glucose yield of enzymatic hydrolysis (% of theoretical maximum),"[1]; pH 10, 24 hrs hydrolysis",38.67 ± 0.3 % of theoretical maximum
same,Glucose yield of enzymatic hydrolysis (% of theoretical maximum),"[1]; pH 10, 72 hrs hydrolysis",42.98 ± 0.88 % of theoretical maximum
same,Glucose yield of enzymatic hydrolysis (% of theoretical maximum),"[1]; pH 11, 24 hrs hydrolysis",41.65 ± 0.14 % of theoretical maximum
same,Glucose yield of enzymatic hydrolysis (% of theoretical maximum),"[1]; pH 11, 72 hrs hydrolysis",44.97 ± 0.42 % of theoretical maximum
same,Improvement in enzymatic digestibility of AOP pretreated AESG,"[1]; pH 11.5, versus no catalyst",very moderate improvement
same,Glucose yield of enzymatic hydrolysis (% of theoretical maximum),"[1]; pH 13, 24 hrs hydrolysis",41.56 ± 0.06 % of theoretical maximum
same,Performance in enhancing AOP pretreatment of hybrid poplar (enzymatic digestibility),[2],superior performance among all candidates
same,Enzymatic digestibility after metal-catalyzed AOP,[3],significantly higher enzymatic digestibility than the addition of either Mn(bpy) or Fe(bpy) complexes
